Laboratory results from article PMC8235661, “Photoelectric Dye, NK-5962, as a Potential Drug for Preventing Retinal Neurons from Apoptosis: Pharmacokinetic Studies Based on Review of the Evidence” (Life, 2021).
Read-outs that look alike come from different tables or passages of the source.

Assays:
[1] = Unbound fraction by equilibrium dialysis, human plasma; type: in vitro ADME; conditions: 1 μM, equilibrium dialysis 37 °C 4 h
Description: An equilibrium dialysis apparatus, Rapid Equilibrium Dialysis (RED) Device Single-Use Plate with Inserts, 8K MWCO (ThermoFisher Scientific, Waltham, MA, USA), was used to determine the unbound fraction for each compound in human plasma, rat plasma, and medium containing 10% fetal bovine serum (FBS). Plasma or medium was mixed with the test compound (1 μM) and 200 μL aliquots were loaded into the apparatus and dialyzed versus 350 μL of 100 mM phosphate buffer (pH 7.4) at 37 °C for 4 h by rotation at 1000 rpm. The unbound fraction was calculated as the ratio of receiver side (buffer) to donor side (plasma) concentrations.

[2] = In vivo pharmacokinetics, intravenous administration; set-up: species or system rat
Description: Male Sprague Dawley (SD) and Wistar rats (5-week old) were obtained from Charles River Laboratories Japan (Yokohama, Japan) and Japan SLC, Inc. (Hamamatsu, Japan), respectively. All animals were maintained in air-conditioned quarters with room temperatures of 20 ± 2 °C, relative humidity of 50 ± 10%, and an alternating 12 h light/dark cycle. The rats were fed a certified diet MF (Oriental Yeast Co., Tokyo, Japan) and water ad libitum. The studies were conducted in accordance with the guidelines provided by the Animal Care and Use Committee of Osaka University (Identifier DouyakuR01-3-1).
A test compound (NK-5962) solution in 50% DMSO/water was injected intravenously (i.v.) to male SD rats. A test compound suspension in 0.5% methyl cellulose was administered orally (p.o.) to male Wistar rats. The dosage of the test compound was 1 mg/2 mL/kg (i.v.) and 10 or 100 mg/10 mL/kg (p.o.). Blood samples were collected from the jugular vein at 5 and 15 min and 1 h (i.v.) by using pre-heparinized syringe after the intravenous administration or from the caudal vein at 15 and 30 min, 1, 2 and 4 h (p.o.) by using heparinized capillary tube after the oral administration. At 30 min and 2 h (i.v.) or 8 h (p.o.), blood samples were collected from the abdominal aorta under isoflurane anesthesia and the eye balls and the whole brain were excised immediately.
Plasma was prepared by centrifugation of the blood samples. Plasma and tissues were stored at −80 °C. The tissues were homogenized with a four-fold volume of phosphate-buffered saline to obtain a 20% tissue homogenate. Plasma and 20% tissue homogenates were precipitated with 4–20 volumes of acetonitrile/IS and centrifuged at 15,000× g at 4 °C for 10 min. The supernatants were analyzed by liquid chromatography and tandem mass spectrometry (LC-MS/MS). Standard non-compartmental analysis was performed to determine the pharmacokinetic parameters: elimination half-life (t1/2) and area under the concentration time curve from time zero to infinity (AUC∞). The absolute bioavailability (BA) of the oral dose was calculated as AUC∞ (p.o.)/AUC∞ (i.v.).
Liquid chromatography and tandem mass spectrometry instrument (LC-MS8060) equipped with Shimadzu Nexera series LC system (Shimadzu, Kyoto, Japan) were used. All compounds were analyzed in multi-reaction monitoring mode under electron spray ionization conditions. The analytical column used was a […] C18 MGIII (3 μm × 2.0 mmID × 35 mm; OSAKA SODA, Osaka, Japan) at 50 °C. The gradient mobile phase consisted of 0.1% formic acid in water (mobile phase A) and 0.1% formic acid in acetonitrile (mobile phase B) at a total flow rate of 1 mL/minute. The initial mobile phase composition was 10% B, which was held constant for 0.2 min, increased in a linear fashion to 90% B over 1 min, then held constant for 0.8 min, and then finally brought back to the initial condition of 10% B over 0.01 min and re-equilibrated for 1 min. The transitions (precursor ion > product ion) of NK-5962 and IS (methyl testosterone) are 433.2 > 279.2 and 303.1 > 109.1 (positive), respectively.

[3] = tested on: human chromosomal aberration; assay: Human chromosomal aberration test; type: cell-based
Eye irritation test = conditions: in vivo
[4] = intravenous 1 mg/kg, 0.5 h, single rat, 1 mg/kg
[5] = intravenous 1 mg/kg, 2 h, single rat, 1 mg/kg

## CCCCN(CCCC)c1ccc(C=Cc2sc3ccccc3[n+]2CC(=O)O)cc1.[Br-] [NK-5962, 2-[2-[4-(dibutylamino)phenyl]ethenyl]-3-carboxymethylbenzothiazolium bromide]
[1]
  Protein-Binding (Non-Binding Ratio) Human Plasma: 0.028
[2]; intravenous 1 mg/kg, 0.083 h, single rat, 1 mg/kg
  Plasma Concentration: 648 nM
[2]; intravenous 1 mg/kg, 0.25 h, single rat, 1 mg/kg
  Plasma Concentration: 342 nM
[2]; [4]
  Eye Ball/ Plasma Ratio: 0.045
  Plasma Concentration: 569 nM
[2]; intravenous 1 mg/kg, 0.5 h, single rat, 1 mg/kg, read-out: Eye Ball Concentration
  concentration at 2 h: 25.5 nM
[2]; intravenous 1 mg/kg, 1 h, single rat, 1 mg/kg
  Plasma Concentration: 34.6 nM
[2]; [5]
  Eye Ball/ Plasma Ratio: 0.16
  Plasma Concentration: 22.0 nM
[2]; intravenous 1 mg/kg, 2 h, single rat, 1 mg/kg, read-out: Eye Ball Concentration
  concentration at 2 h: 3.42 nM
[2]; male, Sprague Dawley, rat, eye ball / plasma, iv, 1 mg/kg, intravenous 1 mg/kg, 0.5 h, single rat, read-out: Eye Ball/ Plasma Ratio
  Kp at 0.5 h: 0.052
[2]; male, Sprague Dawley, rat, eye ball / plasma, iv, 1 mg/kg, intravenous 1 mg/kg, 2 h, single rat, read-out: Eye Ball/ Plasma Ratio
  Kp at 2 h: 0.17
[2]; male, Sprague Dawley, rat, eye ball, iv, 1 mg/kg, intravenous 1 mg/kg, 0.5 h (30 min), read-out: Mean Eye Ball Concentration
  concentration at 0.5 h: 29.8 nM
[2]; male, Sprague Dawley, rat, eye ball, iv, 1 mg/kg, intravenous 1 mg/kg, 0.5 h, single rat, read-out: Eye Ball Concentration
  concentration at 0.5 h: 34.1 nM
[2]; male, Sprague Dawley, rat, eye ball, iv, 1 mg/kg, intravenous 1 mg/kg, 2 h, single rat, read-out: Eye Ball Concentration
  concentration at 2 h: 4.16 nM
[2]; male, Sprague Dawley, rat, eye ball, iv, 1 mg/kg, intravenous 1 mg/kg, 2 h, read-out: Mean Eye Ball Concentration
  concentration at 2 h: 3.79 nM
[2]; male, Sprague Dawley, rat, plasma, iv, 1 mg/kg, intravenous 1 mg/kg, 0.083 h, single rat
  concentration at 0.083 h: 779 nM
[2]; male, Sprague Dawley, rat, plasma, iv, 1 mg/kg, intravenous 1 mg/kg, 0.25 h, single rat
  concentration at 0.25 h: 511 nM
[2]; male, Sprague Dawley, rat, plasma, iv, 1 mg/kg, intravenous 1 mg/kg, 0.5 h, single rat, read-out: Plasma Concentration
  concentration at 0.5 h: 661 nM
[2]; male, Sprague Dawley, rat, plasma, iv, 1 mg/kg, intravenous 1 mg/kg, 1 h, single rat
  concentration at 1 h: 49.9 nM
[2]; male, Sprague Dawley, rat, plasma, iv, 1 mg/kg, intravenous 1 mg/kg, 2 h, single rat, read-out: Plasma Concentration
  concentration at 2 h: 24.3 nM
[2]; male, Sprague Dawley, rat, plasma, intravenous 1 mg/kg body weight, rats
  half-life: 21 min
[3]
  genetic toxicity, human chromosomal aberration test: not toxic
Eye irritation test
  toxicity in the eye irritation test: not toxic
